Reference: patent publication EP4768484A1, “HETEROCYCLIC FUSED RING COMPOUND, AND COMPOSITION AND USE THEREOF” (Shenzhen TargetRx, Inc., priority 2023, dated 2025)

What was measured:
Format in all cases: cell-based
K562 cells = assay: Cell growth inhibitory activity assay (CellTiter-Glo), K562 cells; details: Homo sapiens, 72 h, CTG cell viability
Experimental: (§1) In this assay, the Celltiter-Glo (CTG) kit provided by Promega was used, and it is a homogeneous cell viability assay method. The cell viability of cultured cells was measured by quantifying ATP. K562 cells were purchased from Nanjing Kebai, product number CBP60529; Ba/F3 parental cells were purchased from RIKEN BRC, product number RCB0805; other cells containing BCR-ABL1 WT, BCR-ABL1 T315I, BCR-ABL1 T315M, BCR-ABL1 Y253H/E255K, BCR-ABL1 E255V/T3151, BCR-ABL1 A424T, BCR-ABL1 A337V, BCR-ABL1 P465S, BCR-ABL1 V468F, and BCR-ABL1 I502L were all monoclonal engineered cell lines obtained by transducting Ba/F3 parental cells with the lentivirus plasmids containing WT or corresponding mutated BCR-ABL1.
(§2) The steps of cell viability assay are as follows: • a) Cells in logarithmic growth phase were collected. Cell suspension was prepared and the cells were counted. Concentration of the cells was calculated. • b) The cell suspension was diluted to the required concentration and then added to the middle wells of a 96-well plate, and PBS was added to the edge wells. The wells with no cells and only culture medium were used as blank controls. • c) In addition to the cell plate used for compound analysis, another 96-well plate was prepared as a T0 plate, and 3-6 blank wells and 3-6 cell wells were added. The next day, CTG was used to test the cell viability as the T0 viability value of the cells. • d) The cell plate was incubated at 37 °C in a 5% CO2 incubator overnight. • e) The next day, each concentration of a compound subjected to a gradient dilution was added, and the cell plate was incubated at 37 °C in a 5% CO2 incubator for 72 h. The wells with no compound and only 0.5% DMSO were used as positive controls for cell growth. • f) CTG reagent (CellTiter-Glo kit) was added according to the manufacturer's instructions to test the cell viability value. • g) The plate was read using Biotek cytation3.0 microplate reader and the data were exported. • h) IC50 was calculated using GraphPad Prism 7.0 software.
(§3) The IC50 (half-maximal inhibitory concentration) of the compound was obtained using the following nonlinear fitting formula: Y = Bottom + (Top−Bottom)/(1+10^(∧)((LogIC50−X)*HillSlope)) [formula] • X: Log value of the compound concentration • Y: Inhibition rate (% inhibition) • Top: Maximum response • Bottom: Baseline response • HillSlope: Slope of the curve
(§4) The formula for calculating cell inhibition rate (inhibition rate %) was: [formula]

Ba/F3 BCR-ABL1 WT = molecular target: T1, Ba/F3 BCR-ABL1 WT (Homo sapiens, UniProt P00519+P11274); assay: Cell growth inhibitory activity assay (CellTiter-Glo), Ba/F3 BCR-ABL1 WT cells; details: 72 h, CTG cell viability
T1 construct: BCR (N-terminal fusion partner of the oncoprotein); expressed in transfected cells; host or cells: Ba/F3 (lentiviral transduction, monoclonal line)
Experimental: as §1, §2, §3, §4

Ba/F3 BCR-ABL1 T315I = molecular target: T2, Ba/F3 BCR-ABL1 T315I (Homo sapiens, UniProt P00519+P11274, T315I); assay: Cell growth inhibitory activity assay (CellTiter-Glo), Ba/F3 BCR-ABL1 T315I cells; details: 72 h, CTG cell viability
T2 construct: BCR (N-terminal fusion partner of the oncoprotein); expressed in transfected cells; host or cells: Ba/F3 (lentiviral transduction, monoclonal line)
Experimental: as §1, §2, §3, §4

Ba/F3 parental cells = assay: Cell growth inhibitory activity assay (CellTiter-Glo), Ba/F3 parental cells; details: Mus musculus, BaF3, 72 h, CTG cell viability, read-out: IC50 Ba/F3 BCR-ABL1 Parental
Experimental: as §1, §2, §3, §4

Row | IC50 (K562 cells) [nM] | SMILES | IC50 (Ba/F3 BCR-ABL1 WT) [nM] | IC50 (Ba/F3 BCR-ABL1 T315I) [nM] | IC50 (Ba/F3 parental cells) [nM]
1 | ≤ 5 | CC(C)n1ncc2c1-c1cc(-c3cc(C(=O)Nc4ccc(OC(F)(F)Cl)cc4)cnc3N3CC[C@@H](F)C3)cnc1C2 [T-10-A, (R)-N-(4-(chlorodifluoromethoxy)phenyl)-6-(3-fluoropyrrolidin-1-yl)-5-(1-isopropyl-1,4-dihydropyrazolo[3',4':3,4]cyclopenta[1,2-b]pyridin-7-yl)nicotinamide] | 5 to 50 | 5 to 50 | > 1000
2 | ≤ 5 | Nc1nc(N2CC[C@@H](F)C2)c(-c2cnc3c(c2)-c2nn(-c4ncc(F)cn4)cc2C3)cc1C(=O)Nc1ccc(OC(F)(F)Cl)cc1 [T-132, (R)-2-amino-N-(4-(chlorodifluoromethoxy)phenyl)-5-(2-(5-fluoropyrimidin-2-yl)-2,4-dihydropyrazolo[3',4':3,4]cyclopenta[1,2-b]pyridin-7-yl)-6-(3-fluoropyrrolidin-1-yl)nicotinamide] | ≤ 5 | ≤ 5 | 50 to 1000
3 | ≤ 5 | C[C@@H]1COCc2nc3cc(C(=O)Nc4ccc(OC(F)(F)Cl)cc4)cc(-c4ccc5c(c4)C(=O)N(C)C5)c3n21 [T-61, (R)-N-(4-(chlorodifluoromethoxy)phenyl)-4-methyl-6-(2-methyl-3-oxoisoindolin-5-yl)-3,4-dihydro-1H-benzo[4,5]imidazo[2,1-c][1,4]oxazine-8-carboxamide] | ≤ 5 | 5 to 50 | > 1000
4 | ≤ 5 | C[C@@H]1COCc2nc3cc(C(=O)Nc4ccc(OC(F)(F)Cl)cc4)cc(-c4cnc5c(c4)-c4nn(-c6nccc(-c7ccc(F)nc7)n6)cc4C5)c3n21 [T-94, (R)-N-(4-(chlorodifluoromethoxy)phenyl)-6-(2-(4-(6-fluoropyridin-3-yl)pyrimidin-2-yl)-2,4-dihydropyrazolo[3',4':3,4]cyclopenta[1,2-b]pyridin-7-yl)-4-methyl-3,4-dihydro-1H-benzo[4,5]imidazo[2,1-c][1,4]oxazine-8-carboxamide] | ≤ 5 | ≤ 5 | > 1000
5 | ≤ 5 | CC(=O)Nc1nc2c(s1)Cc1ccc(-c3cc(C(=O)Nc4ccc(OC(F)(F)Cl)cc4)cc4nc5n(c34)[C@H](C)COC5)cc1-2 [T-112, (R)-6-(2-acetamido-8H-indeno[1,2-d]thiazol-5-yl)-N-(4-(chlorodifluoromethoxy)phenyl)-4-methyl-3,4-dihydro-1H-benzo[4,5]imidazo[2,1-c][1,4]oxazine-8-carboxamide] | ≤ 5 | 5 to 50 | > 1000
6 | ≤ 5 | O=C(Nc1ccc(OC(F)(F)Cl)cc1)c1cnc(N2CC[C@@H](F)C2)c(-c2cnc3c(c2)-c2n[nH]cc2C3)c1 [T-1, (R)-N-(4-(chlorodifluoromethoxy)phenyl)-5-(2,4-dihydropyrazolo[3',4':3,4]cyclopenta[1,2-b]pyridin-7-yl)-6-(3-fluoropyrrolidin-1-yl)nicotinamide] | ≤ 5 | ≤ 5 | > 1000
7 | ≤ 5 | O=C(Nc1ccc(OC(F)(F)Cl)cc1)c1cc2c(c(-c3cnc4c(c3)-c3nn(-c5nccc(-c6ccc(F)nc6)n5)cc3C4)c1)C1(CCCCC1)C(=O)N2 [T-139, N-(4-(chlorodifluoromethoxy)phenyl)-4'-(2-(4-(6-fluoropyridin-3-yl)pyrimidin-2-yl)-2,4-dihydropyrazolo[3',4':3,4]cyclopenta[1,2-b]pyridin-7-yl)-2'-oxospiro[cyclohexane-1,3'-indoline]-6'-carboxamide] | ≤ 5 | ≤ 5 | 
8 | ≤ 5 | C[C@@H]1COCc2nc3cc(C(=O)Nc4ccc(OC(F)(F)Cl)cc4)cc(-c4cnc5c(c4)-c4nn(-c6ncccn6)cc4C5F)c3n21 (stereo partly drawn) [T-107, (4R)-N-(4-(chlorodifluoromethoxy)phenyl)-6-(4-fluoro-2-(pyrimidin-2-yl)-2,4-dihydropyrazolo[3',4':3,4]cyclopenta[1,2-b]pyridin-7-yl)-4-methyl-3,4-dihydro-1H-benzo[4,5]imidazo[2,1-c][1,4]oxazine-8-carboxamide] | ≤ 5 | ≤ 5 | 
9 | ≤ 5 | [2H]C1([2H])c2cn(-c3ncccn3)nc2-c2cc(-c3cc(C(=O)Nc4ccc(OC(F)(F)Cl)cc4)cc4nc5n(c34)[C@H](C)COC5)cnc21 [T-105, (R)-N-(4-(chlorodifluoromethoxy)phenyl)-4-methyl-6-(2-(pyrimidin-2-yl)-2,4-dihydropyrazolo[3',4':3,4]cyclopenta[1,2-b]pyridin-7-yl-4,4-d2)-3,4-dihydro-1H-benzo[4,5]imidazo[2,1-c][1,4]oxazine-8-carboxamide] | ≤ 5 | ≤ 5 | 
10 | ≤ 5 | O=C(Nc1ccc(OC(F)(F)Cl)cc1)c1cnc(N2CC[C@@H](F)C2)c(-c2cnc3c(c2)-c2nn(-c4nccc(-c5ccc(F)nc5)n4)cc2C3)c1 [T-141, (R)-N-(4-(chlorodifluoromethoxy)phenyl)-5-(2-(4-(6-fluoropyridin-3-yl)pyrimidin-2-yl)-2,4-dihydropyrazolo[3',4':3,4]cyclopenta[1,2-b]pyridin-7-yl)-6-(3--fluoropyrrolidin-1-yl)nicotinamide] | ≤ 5 | ≤ 5 | 
11 | ≤ 5 | C[C@@H]1COCc2nc3cc(C(=O)Nc4ccc(OC(F)(F)Cl)cc4)cc(-c4cnc5c(c4)-c4nn(C(F)F)cc4C5)c3n21 [T-51, (R)-N-(4-(chlorodifluoromethoxy)phenyl)-6-(2-(difluoromethyl)-2,4-dihydropyrazolo[3',4':3,4]cyclopenta[1,2-b]pyridin-7-yl)-4-methyl-3,4-dihydro-1H-benzo[4,5]imidazo[2,1-c][1,4]oxazine-8-carboxamide] | 5 to 50 |  | > 1000
12 | ≤ 5 | Cn1ccc(-c2ccnc(-n3cc4c(n3)-c3cc(-c5cc(C(=O)Nc6ccc(OC(F)(F)Cl)cc6)cc6c5C5(CCCCC5)C(=O)N6)cnc3C4)n2)n1 [T-138, N-(4-(chlorodifluoromethoxy)phenyl)-4'-(2-(4-(1-methyl-1H-pyrazol-3-yl)pyrimidin-2-yl)-2,4-dihydropyrazolo[3',4':3,4]cyclopenta[1,2-b]pyridin-7-yl)-2'-oxospiro[cyclohexane-1,3'-indoline]-6'-carboxamide] | ≤ 5 | ≤ 5 | 
13 | ≤ 5 | O=C(Nc1ccc(OC(F)(F)Cl)cc1)c1cnc(N2CC[C@@H](F)C2)c(-c2cnc3c(c2)-c2nn(-c4nccc(-c5cncc(F)c5)n4)cc2C3)c1 [T-142, (R)-N-(4-(chlorodifluoromethoxy)phenyl)-5-(2-(4-(5-fluoropyridin-3-yl)pyrimidin-2-yl)-2,4-dihydropyrazolo[3',4':3,4]cyclopenta[1,2-b]pyridin-7-yl)-6-(3-fluoropyrrolidin-1-yl)nicotinamide] | ≤ 5 | ≤ 5 | 
14 | ≤ 5 | C[C@@H]1COCc2nc3cc(C(=O)Nc4ccc(OC(F)(F)Cl)cc4)cc(-c4cnc5c(c4)-c4nn(-c6ncccn6)cc4C5O)c3n21 (stereo partly drawn) [T-106, (4R)-N-(4-(chlorodifluoromethoxy)phenyl)-6-(4-hydroxy-2-(pyrimidin-2-yl)-2,4-dihydropyrazolo[3',4':3,4]cyclopenta[1,2-b]pyridin-7-yl)-4-methyl-3,4-dihydro-1H-benzo[4,5]imidazo[2,1-c][1,4]oxazine-8-carboxamide] | ≤ 5 | ≤ 5 | 
15 | ≤ 5 | O=C(Nc1ccc(OC(F)(F)Cl)cc1)c1cc2c(c(-c3cnc4c(c3)-c3nn(-c5nccc(-c6cncc(F)c6)n5)cc3C4)c1)C1(CCCCC1)C(=O)N2 [T-140, N-(4-(chlorodifluoromethoxy)phenyl)-4'-(2-(4-(5-fluoropyridin-3-yl)pyrimidin-2-yl)-2,4-dihydropyrazolo[3',4':3,4]cyclopenta[1,2-b]pyridin-7-yl)-2'-oxospiro[cyclohexane-1,3'-indoline]-6'-carboxamide] | ≤ 5 | ≤ 5 | 
